# Data from ChEMBL document CHEMBL6120988, “Mitochondria-targeting artesunate-rhein conjugates: Linker-modulated cell-permeability, heme-affinity and anticancer activity” (Eur J Med Chem, 2025).
# Active and inactive are the calls of the source. The rule behind the calls is not given here.
# Legend:
# [1] = AUC(0 to t) in mouse at 100 mg/kg, po; assay type: ADME, organism-based; conditions: in vivo
# [2] = Toxicity against female BALB/c mouse allografted with mouse 4T1 cells assessed as mean corpuscular hemoglobin concentration at 100 mg/kg, po administrated every day for 15 times and measured after 22 days; assay type: organism-based; conditions: in vivo, 528 h, time 22 day
# 4T1 [3] = assay: Antitumor activity against mouse 4T1 cells allografted in female BALB/c mouse assessed as disappearance of cancer cells at 10 mg/kg, iv administrated every 3 days for 5 times and measured after 22 days by H and E staining based analysis; assay type: functional, organism-based; conditions: time 22.0 day
# [4] = Toxicity in female BALB/c mouse allografted with mouse 4T1 cells assessed as effect on blood platelet at 10 mg/kg, iv administrated every 3 days for 5 times and measured after 22 days; assay type: organism-based; conditions: in vivo, 528 h, time 22 day
# [5] = MRT (0 to infinity) in mouse at 100 mg/kg, po; assay type: ADME, organism-based; conditions: in vivo
# 4T1 [6] = assay: Induction of mitochondrial dysfunction in mouse 4T1 cells assessed as ATP production; assay type: functional, cell-based
# [7] = Toxicity in female BALB/c mouse allografted with mouse 4T1 cells assessed as effect on blood platelet at 100 mg/kg, po administrated every day for 15 times and measured after 22 days; assay type: organism-based; conditions: in vivo, 528 h, time 22 day
# 4T1 [8] = assay: Antitumor activity against mouse 4T1 cells allografted in female BALB/c mouse assessed as increase in infiltration of CD8+IFN-gamma+ lymphocytes in tumors at 100 mg/kg, po administrated every day for 15 times and measured after 22 days by flow cytometry (reference value: 5.99%); assay type: functional; conditions: time 22 day
# 4T1 [9] = assay: Immunostimulatory activity in mouse 4T1 cells implanted in female BALB/c mouse assessed as reduction in immunosuppressive CD206+ expression; assay type: functional, cell-based
# 4T1 [10] = assay: Antitumor activity against mouse 4T1 cells allografted in female BALB/c mouse assessed as reduction in tumor tissue weight at 10 mg/kg, iv administrated every 3 day for 5 times and measured after for 22 days; assay type: functional, organism-based; conditions: time 22.0 day
# 4T1 [11] = assay: Induction of immunogenic cell death in mouse 4T1 cells allografted in female BALB/c mouse assessed as increase in CD80+ CD86+CD11c+ cells DC maturation at 100 mg/kg, po administrated every day for 15 times and measured after 22 days by flow cytometry (reference value: 7.20 %); assay type: functional; conditions: time 22 day
# 4T1 [12] = assay: Antitumor activity against mouse 4T1 cells allografted in female BALB/c mouse assessed as tumor inhibition rate at 10 mg/kg, iv administrated every 3 day for 5 times and measured after 22 days relative to control; assay type: functional; parameters: scale not given: the % may be the effect or the level left; conditions: time 22 day
# 4T1 [13] = assay: Induction of mitochondrial dysfunction in mouse 4T1 cells assessed as basal respiration; assay type: functional, cell-based
# [14] = MRT (0 to infinity) in iv dosed mouse; assay type: ADME, organism-based; conditions: in vivo
# [15] = Toxicity against female BALB/c mouse allografted with mouse 4T1 cells assessed as hemoglobin at 10 mg/kg, iv administrated every 3 days for 5 times and measured after 22 days; assay type: organism-based; conditions: in vivo, 528 h, time 22 day
# 4T1 [16] = assay: Induction of ROS production in mouse 4T1 cells assessed as increase in intracellular ROS level by […] staining based flow cytometry (reference value: 7.8%); assay type: functional
# [17] = Toxicity in female BALB/c mouse allografted with mouse 4T1 cells assessed as survival rate at 10 mg/kg, iv administrated every 3 day for 5 times and measured after 22 days relative to control; assay type: organism-based; conditions: in vivo, 528 h, time 22 day
# 4T1 [18] = assay: Antitumor activity against mouse 4T1 cells allografted in female BALB/c mouse assessed as increase in infiltration of CD8+IFN-gamma+ lymphocytes in tumors at 10 mg/kg, iv administrated every day for 15 times and measured after 22 days by flow cytometry (reference value: 5.58%); assay type: functional; conditions: time 22 day
# 4T1 [19] = assay: Induction of immunogenic cell death in mouse 4T1 cells allografted in female BALB/c mouse assessed as increase in CD80+ CD86+CD11c+ cells DC maturation at 10 mg/kg, iv administrated every 3 days for 5 times and measured after 22 days by flow cytometry (reference value: 7.77 %); assay type: functional; conditions: time 22 day
# [20] = Toxicity against female BALB/c mouse allografted with mouse 4T1 cells assessed as mean corpuscular volume at 100 mg/kg, po administrated every day for 15 times and measured after 22 days; assay type: organism-based; conditions: in vivo, 528 h, time 22 day
# 4T1 [21] = assay: Antitumor activity against mouse 4T1 cells allografted in female BALB/c mouse assessed as reduction in tumor tissue volume at 100 mg/kg, po administrated every day for 15 times and measured after 22 days relative to control; assay type: functional, organism-based; conditions: time 22.0 day
# 4T1 [22] = assay: Induction of immunogenic cell death in mouse 4T1 cells assessed as increase in CRT exposure on cell surface by measuring increase in red fluorescence by CLSM analysis (reference value: 2.55%); assay type: functional
# [23] = Toxicity against female BALB/c mouse allografted with mouse 4T1 cells assessed as effect on white blood cells at 100 mg/kg, po administrated every day for 15 times and measured after 22 days; assay type: organism-based; conditions: in vivo, 528 h, time 22 day
# [24] = Toxicity against female BALB/c mouse allografted with mouse 4T1 cells assessed as mean corpuscular volume at 10 mg/kg, iv administrated every 3 days for 5 times and measured after 22 days; assay type: organism-based; conditions: in vivo, 528 h, time 22 day
# [25] = Toxicity in female BALB/c mouse allografted with mouse 4T1 cells assessed as survival rate at 100 mg/kg, po administrated every day for 15 times and measured after 22 days relative to control; assay type: organism-based; conditions: in vivo, 528 h, time 22 day
# 4T1 [26] = assay: Antitumor activity against mouse 4T1 cells allografted in female BALB/c mouse assessed as increase in infiltration of CD3+ CD8+ T lymphocytes in tumors at 10 mg/kg, iv administrated every 3 days for 5 times and measured after 22 days by flow cytometry analysis (reference value: 7.87 %); assay type: functional; conditions: time 22 day
# 4T1 [27] = assay: Cytotoxicty against mouse 4T1 cells assessed as cell viability by MTT assay; assay type: functional, cell-based
# 4T1 [28] = assay: Antitumor activity against mouse 4T1 cells allografted in female BALB/c mouse assessed as increase in nuclear shrinkage at 100 mg/kg, po administrated every day for 15 times and measured for 22 days; assay type: functional, organism-based; conditions: time 22.0 day
# U-87 MG = assay: Cytotoxicity against human U87 cells assessed as cell viability by MTT assay; assay type: functional, cell-based, U-87MG ATCC
# 4T1 [29] = assay: Induction of mitochondrial dysfunction in mouse 4T1 cells assessed as maximum respiration; assay type: functional, cell-based
# [30] = AUC(0 to t) in mouse iv dosed mouse; assay type: ADME, organism-based; conditions: in vivo, dose 10 mg/kg, time 3 day
# 4T1 [31] = assay: Induction of apoptosis in mouse 4T1 cells assessed as late apoptotic cells by Annexin V-FITC and PI staining based flow cytometry analysis (reference value: 0.13 %); assay type: functional
# [32] = Toxicity against female BALB/c mouse allografted with mouse 4T1 cells assessed as hemoglobin at 100 mg/kg, po administrated every day for 15 times and measured after 22 days; assay type: organism-based; conditions: in vivo, 528 h, time 22 day
# [33] = Tmax in mouse iv dosed mouse; assay type: ADME, organism-based; conditions: in vivo
structure (smiles),measurement,setting,value
C[C@H]1[C@H](OC(=O)CCC(=O)OCCCCOC(=O)c2cc(O)c3c(c2)C(=O)c2cccc(O)c2C3=O)O[C@@H]2O[C@@]3(C)CC[C@H]4[C@H](C)CC[C@@H]1[C@@]24OO3,AUC(0-t),[1],18200 ng·h/mL
same,Activity,[2],Non-toxic
same,Activity,4T1 [3],Active
same,Activity,[4],Non-toxic
same,MRT inf,[5],4.95 h
same,Activity,4T1 [6],Active
same,Activity,[7],Non-toxic
same,Activity,4T1 [8],13.3%
same,Activity,4T1 [9],Active
same,Activity,4T1 [10],Active; Tumor Lighter Weight Than Pbs Treatment
same,Activity,4T1 [11],17.4%
same,Activity,4T1 [12],79.15%
same,Activity,4T1 [13],Active
same,MRT inf,[14],7.67 h
same,Activity,[15],Non-toxic
same,Activity,4T1 [16],42.5%
same,Survival,[17],<= 39 day
same,Activity,4T1 [18],12.3%
same,Activity,4T1 [19],20%
same,Activity,[20],Non-toxic
same,Activity,4T1 [21],Active; Tumor Lighter Weight Than Pbs Treatment
same,Activity,4T1 [22],Active
same,Activity,4T1 [22]; record 2,32.82%
same,Activity,[23],Non-toxic
same,Activity,[24],Non-toxic
same,Survival,[25],<= 39 day
same,Activity,4T1 [26],15.33%
same,IC50,4T1 [27],1130 nM
same,Activity,4T1 [28],Active
same,IC50,U-87 MG,2140 nM
same,Activity,4T1 [29],Active
same,AUC(0-t) at 72 h,[30],11500 ng·h/mL
same,Activity,4T1 [31],29.4%
same,Activity,[32],Non-toxic
same,Tmax,[33],0.17 h
